Measured values from patent US9340572B2, “Taccalonolide microtubule stabilizers” (THE BOARD OF REGENTS OF THE UNIVERSITY OF TEXAS SYSTEM, priority 2011, dated 2016).

Assays:
[1] = system: isogenic HeLa-derived cell line that expresses the βIII isotype of tubulin; conditions: cited from earlier work
[2] = system: HeLa cells; test: Cell cycle distribution by flow cytometry; conditions: 18 h; 125 nM AF, 200 nM AI, 35 nM AJ

Structure (SMILES): CC(=O)O[C@H]1C(=O)[C@@]2(C)[C@H]([C@H](OC(=O)c3ccccc3)[C@]3(O)C[C@H](OC(=O)[C@H](O)[C@@H](NC(=O)c4ccccc4)c4ccccc4)C(C)=C1C3(C)C)[C@]1(OC(C)=O)CO[C@@H]1C[C@@H]2O [paclitaxel]
- sensitivity of βIII-tubulin-overexpressing cell line compared with parental HeLa cells [1]: less sensitive
- effect on cell cycle distribution / mitotic progression [2]: mitotic arrest
